Source: publication PMC7259601 (PLoS ONE, 2020)
Where two headings read alike, the source gives them in different places.

Tests used:
Rat pharmacokinetics = type: in vivo, Wistar rats; conditions: for AUC(0-inf) / Cmax / Tmax / AUC(0-t): Wistar; for AUC(0-inf): read-out: Plasma AUCinf; for AUC(0-t): read-out: Plasma AUClast
Method: Blood samples were collected at 0, 0.08 (for IV only), 0.25, 0.5, 1, 2, 4, and 6 (Only for PO) 8 and 24 hr for IV and PO group and at three rats were euthanized by using excess CO2 asphyxiation, each at 0.25, 1 and 4 hr post dose and brain was collected. The study was conducted at Sai Advantium Pharma Limited, Pune, India, in accordance with the guidelines of the Institutional Animal Ethics Committee (IAEC). Prior approval was obtained before initiation of the study (IAEC Protocol No. IAEC/PRT/006-11).
Blood samples were collected from each rat at 0.5, 1, 2, 4, 6, 8, 12, and 24 hr (oral gavage) or at 2, 4, 6, 8, 12, 24, 25, 27, 30 and 48 hr (drinking water) were collected from the retro-orbital plexus into labeled tubes, containing K2EDTA solution, as an anticoagulant. Animals were euthanized by using excess CO2 asphyxiation. […] Prior approval was obtained before initiation of the study (IAEC Protocol No. FB-14-069-R-089; IAEC-CPCSEA).
Plasma was harvested from the blood samples harvested in K2EDTA containing tubes by centrifugation at 4000 rpm for 10 min at 4 ± 2 °C and stored below -70 °C until bioanalysis. Brain tissue was homogenized with phosphate buffer saline (pH 7.4). Total homogenate volume was thrice the tissue weight. All samples were processed for analysis by precipitation using Imipramine as internal standard and analyzed with partially validated LC-MS/MS method. Pharmacokinetic parameters were calculated using the non-compartmental analysis tool of WinNonlin® Enterprise software (Pharsight Corp., USA; version 5.2).
Compound levels from 3 samples per timepoint (for a given dose and route of administration), were used to calculated pharmacokinetic parameters using the non-compartmental analysis tool of WinNonlin® Enterprise software (Pharsight Corp., USA; version 5.2).

SAMP8 mice = assay: Three Chamber Test (TCT); type: in vivo, mouse; conditions: 0.96 mg/kg/day
Method: Both male and female mice from the senescence accelerated strain SAMP8 and its control SAMR1 of different ages (see Table S3 for details) were used in these studies. Mice were breed in the animal facilities of the Pharmacy Faculty (University of Barcelona), maintained in a at 22 ± 2 °C controlled temperature in a 12 hr light / dark cycle (lights on at 8:00 am; 300 lux/0 lux) with ad libitum access to food (2018 TEKLAD, Harlan) and water. Male mice were housed individually (males) or in groups of 4-5 animals (females) in plastic colony boxes with a sawdust bedding material. […] SAMR1 mice treated with vehicle were included as a control. All drugs were administered via drinking water and diluted in vehicle. Drug concentration was calculated weekly in function of body weight and corrected in function of drinking water consumption. Cognitive function was evaluated by NORT, social behavior was evaluated by RI and anxiety and motor function were evaluated by EPM and OF. […]
The test was performed in a Plexiglas transparent box with three identical consecutive chambers (15 x 15 x 20 cm). […] This habituation time was monitored to avoid animals showing preference for one of the chambers. […] The time spent in each chamber and the time of direct exploration of the novel mice was measured.
Three Chamber Test (TCT): Mice were recorded for 5 min during habituation and an additional X min to run the test. […]

KDM1A = KDM1A target engagement in brain cortex (chemoprobe ELISA); type: in vivo, SAMP8 mice; conditions: end of 2 month treatment
Method: Native protein extracts of cells or tissues were obtained in presence of 25 nM OG-881 chemoprobe according the protocol described in Mascaró et al..
Luminescent ELISA: for quantification of total amount of KDM1A protein (TOTAL KDM1A), Luminunc Plates Maxisorp (NUNC; #436110) were coated with a monoclonal anti-KDM1A antibody (Abcam; #ab53269) at 2 µg/mL in PBS. For quantification of the fraction not bound to inhibitor (FREE KDM1A), plates were coated with streptavidin (Promega Biotech Ibérica; #Z7041) at 10 µg/mL in PBS. Coating was performed at 4°C O/N. Wells were washed 3 times in PBS, 0.1% Tween-20 and blocked with PBS-BSA 1% (Sigma; #A3059) for 2 hr. A KDM1A calibration curve of full length rKDM1A (Active Motif; #31334) diluted in PBS was included in each plate. Plates were then incubated 1 hr at RT and washed 5 times. […] Plates were centrifuged during 30 sec to 1,500 x g, shaken for 1 min at 100rpm and incubated inside the micropate reader (Infinite 200, Tecan) for 3 min at 25 °C. The relative luminescence units (RLU) readouts were acquired using a 1000 msec integration time and 150 msec settle time.
All assays were run as triplicate technical replicates (n = 3). After raw data processing (robust elimination of outliers according to Grubbs criteria and subtraction of blank signal on technical replicates), the target engagement was calculated as […]

[1] = Wistar rats, oral gavage 10 mg/kg
[2] = male, rat, plasma, po, 5.6 mg/kg/day, Wistar rats, oral drinking water 0.25mg/ml (5,6 mg/kg)
[3] = male, rat, plasma, po, 10 mg/kg, Wistar rats, oral drinking water, dose normalized to 10 mg/Kg
[4] = male, rat, plasma, po, 10 mg/kg, Wistar rats, oral gavage 10 mg/kg
[5] = male, rat, plasma, po, 10 mg/kg, Wistar rats, oral gavage 10 mg/kg (second gavage column)
[6] = male, rat, plasma, po, 10 mg/kg, Wistar rats, oral gavage 10 mg/kg (second gavage column, gavage vs drinking water study)
[7] = male, rat, plasma, Wistar rats, intravenous 2 mg/kg

Nc1nnc(CN[C@@H]2C[C@H]2c2ccc(OCc3ccccc3)cc2)o1 [ORY-2001, vafidemstat]
Brain Cmax (Rat pharmacokinetics; [1]): 4957 ng/g
Fpo (Rat pharmacokinetics; [1]): 95%
time for brain compound levels to return to baseline (Rat pharmacokinetics; brain pharmacokinetics (S2A Table)): less than 1 days
AUC(0-inf) (Rat pharmacokinetics; male, rat, plasma, iv, 2 mg/kg, Wistar rats, intravenous 2 mg/kg): 3910 ng·h/mL
Cmax (Rat pharmacokinetics; [2]): 945 ng/mL
Tmax (Rat pharmacokinetics; [2]): 8.67 h
AUC(0-t) (Rat pharmacokinetics; male, rat, plasma, po, 5.6 mg/kg/day, Wistar rats, oral drinking water 0.25mg/ml (5,6 mg/kg), ad libitum 24 hr): 12000 ng·h/mL
AUC(0-inf) (Rat pharmacokinetics; [2]): 12100 ng·h/mL
Cmax (Rat pharmacokinetics; [3]): 1690 ng/mL
Tmax (Rat pharmacokinetics; [3]): 8.67 h
AUC(0-t) (Rat pharmacokinetics; male, rat, plasma, po, 10 mg/kg, Wistar rats, oral drinking water, dose normalized to 10 mg/Kg considering a linear behavior): 21500 ng·h/mL
AUC(0-inf) (Rat pharmacokinetics; [3]): 21700 ng·h/mL
Cmax (Rat pharmacokinetics; [4]): 3400 ng/mL
Tmax (Rat pharmacokinetics; [4]): 0.833 h
Cmax (Rat pharmacokinetics; [5]): 5970 ng/mL
Tmax (Rat pharmacokinetics; [5]): 2 h
AUC(0-inf) (Rat pharmacokinetics; [6]): 35600 ng·h/mL
AUC(0-t) (Rat pharmacokinetics; [6]): 32900 ng·h/mL
AUC(0-inf) (Rat pharmacokinetics; [4]): 21000 ng·h/mL
AUC (Rat pharmacokinetics; male, rat, plasma, po, Wistar rats, p.o. 10 mg/kg, read-out: area-under-the-curve (AUC) (converted)): 21000 ng·h/mL
clearance (Rat pharmacokinetics; [7]): 8.5 mL/min/kg
half-life (Rat pharmacokinetics; [7]): 1.87 h
Vd (Rat pharmacokinetics; male, rat, plasma, Wistar rats, intravenous 2 mg/kg, read-out: Vss): 1.2 L/kg
half-life (Rat pharmacokinetics; male, rat, plasma, Wistar rats, oral gavage 10 mg/kg): 3.28 h
time exploring mice introduced in the cage (SAMP8 mice; 12 month old female): restored the time SAMP8 spent exploring mice
preference for the chamber with the novel mice (SAMP8 mice; female): restored the normal preference
KDM1A target engagement in cortex (KDM1A): correlated with the observed functional effects on memory
